The results in this text go back to ChEMBL document CHEMBL5030563, “Structure-Based Design of Dual-Acting Compounds Targeting Adenosine A2A Receptor and Histone Deacetylase as Novel Tumor Immunotherapeutic Agents” (J Med Chem, 2021).

One series has as its target T1, Histone deacetylase 11 (Homo sapiens, UniProt Q96DB2).
T1 sequence (Q96DB2 whole entry): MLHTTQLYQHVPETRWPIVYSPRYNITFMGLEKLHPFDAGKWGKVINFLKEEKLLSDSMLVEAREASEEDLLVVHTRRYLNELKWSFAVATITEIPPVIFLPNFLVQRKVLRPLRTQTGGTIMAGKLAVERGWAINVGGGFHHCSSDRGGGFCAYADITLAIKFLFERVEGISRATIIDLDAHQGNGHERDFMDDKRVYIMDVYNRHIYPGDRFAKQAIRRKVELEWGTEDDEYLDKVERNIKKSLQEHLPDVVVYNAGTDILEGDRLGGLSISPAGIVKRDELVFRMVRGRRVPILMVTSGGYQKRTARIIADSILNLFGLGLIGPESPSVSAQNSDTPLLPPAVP
Description: Inhibition of HDAC11 (unknown origin) assessed as release of 7-amino-4-methylcoumarin incubated in room temperature for 15 min measured by Spectra max microtitre plate reader.

A short description of series [1]: Toxicity in C57BL/6 mouse assessed as loss in body weight at 30 to 60 mg/kg, ip, bid measured after 9 days. In kind it is organism-based. The settings on record: in vivo, 216 h, dose 30-60 mg/kg, time 9 day.
Another series addresses T2, Histone deacetylase 7 (Homo sapiens, UniProt Q8WUI4).
T2 sequence (Q8WUI4 whole entry): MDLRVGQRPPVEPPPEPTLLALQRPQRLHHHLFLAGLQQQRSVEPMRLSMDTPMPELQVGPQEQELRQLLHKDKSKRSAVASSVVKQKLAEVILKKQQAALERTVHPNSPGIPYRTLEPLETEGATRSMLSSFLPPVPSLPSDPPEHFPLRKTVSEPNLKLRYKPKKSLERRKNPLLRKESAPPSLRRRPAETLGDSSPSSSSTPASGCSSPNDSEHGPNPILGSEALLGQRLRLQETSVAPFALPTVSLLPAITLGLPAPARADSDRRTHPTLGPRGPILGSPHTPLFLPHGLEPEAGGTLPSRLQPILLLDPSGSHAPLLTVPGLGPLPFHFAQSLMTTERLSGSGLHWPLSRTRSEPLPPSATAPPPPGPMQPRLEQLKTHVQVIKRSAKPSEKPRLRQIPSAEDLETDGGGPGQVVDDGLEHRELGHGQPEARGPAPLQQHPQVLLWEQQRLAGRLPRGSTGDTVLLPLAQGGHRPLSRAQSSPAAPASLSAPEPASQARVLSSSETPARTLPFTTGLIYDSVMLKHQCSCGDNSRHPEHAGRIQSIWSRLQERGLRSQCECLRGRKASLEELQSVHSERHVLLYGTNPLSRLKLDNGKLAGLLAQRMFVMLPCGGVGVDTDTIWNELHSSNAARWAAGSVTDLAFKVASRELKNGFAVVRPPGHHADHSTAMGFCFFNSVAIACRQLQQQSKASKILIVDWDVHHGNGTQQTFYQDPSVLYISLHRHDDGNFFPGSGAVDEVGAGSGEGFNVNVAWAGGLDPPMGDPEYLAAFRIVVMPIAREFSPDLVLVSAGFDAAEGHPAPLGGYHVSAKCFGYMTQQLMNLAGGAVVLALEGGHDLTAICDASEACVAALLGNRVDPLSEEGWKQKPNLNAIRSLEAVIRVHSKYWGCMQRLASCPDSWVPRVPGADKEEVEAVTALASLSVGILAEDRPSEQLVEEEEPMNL
Description: Inhibition of HDAC7 (unknown origin) assessed as release of 7-amino-4-methylcoumarin incubated in room temperature for 15 min measured by Spectra max microtitre plate reader.

The nature of series [2]: Tmax in ICR mouse at 20 mg/kg, ip up to 24 hrs by LC-MS/MS analysis. In kind it is ADME, organism-based. The settings on record: in vivo.
The nature of series [3]: Elimination rate constant in ICR mouse at 20 mg/kg, ip up to 24 hrs by LC-MS/MS analysis. In kind it is ADME, organism-based. As to conditions: in vivo.
In a further series the test system is CT26. Description: Antiproliferative activity against mouse CT26 cells measured after 72 hrs by CCK8 assay. The class given is functional. As to conditions: Mus musculus, CT26.
Series [4] in a line: AUC (0 to […]) in ICR mouse at 5 mg/kg, iv up to 24 hrs by LC-MS/MS analysis. The class given is ADME, organism-based. Further details: route intravenous, dose 5 mg/kg, time <=24. The settings on record: in vivo.
A short description of series [5]: Tmax in ICR mouse at 20 mg/kg, po by LC-MS/MS analysis. In kind it is ADME, organism-based. The settings on record: in vivo.
The test system of a further series is MC38. Briefly: Inhibition of HDAC in mouse MC38 cells assessed as increase in acetyl-histone H3 measured after 24 hrs by Western blot analysis. The class given is cell-based. On the technique in general: A western blot detects proteins with antibodies after separation by electrophoresis.
A further series addresses T3, Histone deacetylase 8 (Homo sapiens, UniProt Q9BY41).
T3 sequence (Q9BY41 whole entry): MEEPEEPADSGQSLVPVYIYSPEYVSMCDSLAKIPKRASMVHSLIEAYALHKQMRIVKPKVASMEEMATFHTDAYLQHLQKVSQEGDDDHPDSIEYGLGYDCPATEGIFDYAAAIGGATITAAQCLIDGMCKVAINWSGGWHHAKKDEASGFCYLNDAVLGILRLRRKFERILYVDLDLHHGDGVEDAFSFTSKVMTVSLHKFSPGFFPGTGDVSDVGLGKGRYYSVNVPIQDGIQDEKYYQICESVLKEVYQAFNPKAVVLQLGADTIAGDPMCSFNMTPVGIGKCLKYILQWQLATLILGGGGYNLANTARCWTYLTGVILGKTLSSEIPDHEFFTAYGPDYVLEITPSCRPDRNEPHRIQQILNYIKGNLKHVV
Briefly: Inhibition of HDAC8 (unknown origin) assessed as release of 7-amino-4-methylcoumarin incubated in room temperature for 15 min measured by Spectra max microtitre plate reader.

Series [6] is described as follows: AUC (0 to t) in ICR mouse at 20 mg/kg, po by LC-MS/MS analysis. The class given is ADME, organism-based. As to conditions: in vivo. The arrangement: dose 20 mg/kg.
The test system of series [7] is MC-38. Briefly: Antitumour activity against mouse MC38 cells in C57BL/6 mouse assessed as tumour growth inhibition at 30 mg/kg, ip, bid measured after 9 days relative to control. The class given is functional. As to conditions: MC-38, ip, 216 h, time 9 day, read-out: TGI.
A short description of series [8]: Elimination rate constant in ICR mouse at 20 mg/kg, po up to 24 hrs by LC-MS/MS analysis. In kind it is ADME, organism-based. The settings on record: in vivo.
Series [9] in a line: AUC (0 to […]) in ICR mouse at 20 mg/kg, ip up to 24 hrs by LC-MS/MS analysis. The class given is ADME, organism-based. The arrangement: route intraperitoneal, dose 20 mg/kg, time <=24. The settings on record: in vivo.
Series [10] can be described thus: Oral bioavailability in ICR mouse at 20 mg/kg by LC-MS/MS analysis. In kind it is ADME, organism-based. The settings on record: in vivo.
In series [11] the test system is MC-38. Briefly: Antiproliferative activity against mouse MC38 cells measured after 72 hrs by CCK8 assay. The class given is functional. As to conditions: Mus musculus, MC-38.
Series [12] deals with MC-38. Description: Antitumour activity against mouse MC38 cells in C57BL/6 mouse assessed as tumour growth inhibition at 50 mg/kg, ip, bid measured after 9 days relative to control. The class given is functional. The settings on record: MC-38, ip, 216 h, time 9 day, read-out: TGI.
The nature of series [13]: AUC (0 to infinity) in ICR mouse at 5 mg/kg, iv up to 24 hrs by LC-MS/MS analysis. The class given is ADME, organism-based. Further details: route intravenous, dose 5 mg/kg, time <=24. As to conditions: in vivo.
A short description of series [14]: Half life in ICR mouse at 20 mg/kg, po by LC-MS/MS analysis. The class given is ADME, organism-based. The settings on record: in vivo.
In the next series the target is Histone deacetylase 5 (Homo sapiens, UniProt Q9UQL6). Briefly: Inhibition of HDAC5 (unknown origin) assessed as release of 7-amino-4-methylcoumarin incubated in room temperature for 15 min measured by Spectra max microtitre plate reader.
Histone deacetylase 5, sequence (Q9UQL6 whole entry): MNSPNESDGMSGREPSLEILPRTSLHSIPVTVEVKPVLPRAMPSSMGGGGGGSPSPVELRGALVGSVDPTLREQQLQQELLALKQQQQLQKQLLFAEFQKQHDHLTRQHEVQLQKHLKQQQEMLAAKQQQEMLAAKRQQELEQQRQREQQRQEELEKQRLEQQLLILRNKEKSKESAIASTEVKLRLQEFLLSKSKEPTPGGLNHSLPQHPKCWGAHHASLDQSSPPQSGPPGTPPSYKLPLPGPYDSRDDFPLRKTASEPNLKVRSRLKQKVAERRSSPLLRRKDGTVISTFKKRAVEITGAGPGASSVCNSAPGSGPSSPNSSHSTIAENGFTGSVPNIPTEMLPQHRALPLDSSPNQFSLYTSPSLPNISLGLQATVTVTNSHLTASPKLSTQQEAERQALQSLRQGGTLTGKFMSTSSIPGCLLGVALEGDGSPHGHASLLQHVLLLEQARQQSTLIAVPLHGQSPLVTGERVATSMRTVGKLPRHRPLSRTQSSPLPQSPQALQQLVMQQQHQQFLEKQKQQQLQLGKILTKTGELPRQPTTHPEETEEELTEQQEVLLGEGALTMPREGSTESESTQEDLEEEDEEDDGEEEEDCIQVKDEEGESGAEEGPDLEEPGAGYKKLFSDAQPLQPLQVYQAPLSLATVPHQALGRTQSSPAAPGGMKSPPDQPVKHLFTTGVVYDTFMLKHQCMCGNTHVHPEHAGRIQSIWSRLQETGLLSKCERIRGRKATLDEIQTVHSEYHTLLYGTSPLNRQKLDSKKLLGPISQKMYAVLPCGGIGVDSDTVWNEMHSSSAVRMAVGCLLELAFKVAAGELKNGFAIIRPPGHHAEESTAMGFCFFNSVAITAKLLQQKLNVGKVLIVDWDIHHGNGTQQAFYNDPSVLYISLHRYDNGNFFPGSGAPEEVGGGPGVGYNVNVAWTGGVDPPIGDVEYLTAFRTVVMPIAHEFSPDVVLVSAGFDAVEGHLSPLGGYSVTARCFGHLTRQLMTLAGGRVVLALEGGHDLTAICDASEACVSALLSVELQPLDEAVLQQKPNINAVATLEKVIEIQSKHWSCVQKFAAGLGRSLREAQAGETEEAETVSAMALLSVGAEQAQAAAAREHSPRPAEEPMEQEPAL

In general, IC50 refers to the concentration that gives 50% inhibition. As usually defined, the Tmax is the time from dosing to the highest level. A word on the GI50: it is the concentration at which growth is held to half of that of the control. The AUC(0-t) is exposure summed from dosing to a finite time, without extrapolation to infinity. Higher therefore signals more exposure. Broadly, the bioavailability is the share of a dose that reaches the circulation, judged against a reference dose that is usually intravenous. The low end stands for poor availability, the high end for good availability. As usually defined, the AUC(0-inf) is total exposure, with the tail of the curve extrapolated. High values mean high exposure, low ones low exposure. In general, half-life refers to the time needed for the level to fall by half in the phase considered. Read a low half-life as rapid decline.

As for `Nc1ccccc1NC(=O)c1ccc(CCn2ncc3c2nc(N)n2nc(-c4ccco4)nc32)cc1`, the IC50 at Histone deacetylase 11, at Histone deacetylase 7, at Histone deacetylase 8 and on Histone deacetylase 5 was > 10 µM throughout. Also, the Activity entry in series [1] was “Toxic”; with MC38 it was “Dose-Dependent Effect”. Besides, the Tmax is 25 min in series [2] and 15 min in series [5]. Also, the k el at 24 h is 0.000138 s⁻¹ in series [3] and 9.86e-05 s⁻¹ in series [8]. Further, the concentration for 50% growth inhibition (GI50) was 6.1 µM with CT26 and 6.2 µM in the series on MC-38 [11]. For the same molecule, the AUC(0-t) in [4] was determined as 1.46 µg·h/mL; in series [6] it was 1.77 µg·h/mL; in series [9] it was 6.54 µg·h/mL. For the same molecule, the inhibition in vivo at 30 mg/kg with MC-38 [7] was 57.8%. Besides, the bioavailability in series [10] was 30.3%. Further, the inhibition in vivo at 50 mg/kg with MC-38 [12] amounted to 81%. The molecule also registered an AUC(0-inf) in series [13] of 1.47 µg·h/mL. This molecule showed a half-life in [14] of 118 min.
